From patent US20020058244A1, “Method for detecting uracil biosynthesis inhibitors and their use as herbicides” (priority 2000, published 2002)
Entries after “also recorded” stand apart in the source; their conditions may differ. Read-outs that look alike come from different tables or passages of the source.

Experiments:
[1] = tested on: Arabidopsis; test: Arabidopsis 96 well microtiter plate injury and reversal test; type: in vivo; conditions: for uracil biosynthesis inhibitory activity: reversal assay, see Table III; for reversal of lethal effects by uridine: 100 μM uridine
Experimental: The compounds were tested in a 96 microtiter well plate containing various concentrations of probe compound with or without intermediates of the pyrimidine and purine biosynthesis pathways to detect reversal of injury. Plates were filled with 0.7% agar medium, seeded with Arabidopsis, and placed in a growth chamber for several days to allow for seed germination and plant growth. Arabidopsis plates were rated on a scale from 0 to 9 where 0 represents no injury, and 9 represents no germination. In addition, injury symptoms observed were recorded.

[2] = Stability in aqueous solution by mass spectroscopy and NMR; type: physicochemical; conditions: for half-life: aqueous solution
Experimental: The stability analysis of the compound “B”, compound “C”, compound “G”, and compound “E” compounds was performed using a Hewlett Packard HP1100 LC system coupled to a Micromass Platfom-LC mass spectrometer operating with an electrospray ionization source. In positive ion electrospray, AC12254 82A produced molecules at m/z 112(M^+), m/z 153 (M+41) at a cone voltage of 30V. Retention time of AC 12254 82A was 12.54 min with absorption maxima of 248 and 314 nm.
Column: Hypersil Spherisorb Waters ODS(2), 3.6×150 mm
Eluent: 60% acetonitrile, 40% water (0.1% formic acid)
Photodiode Array Detection: Scan Range: 190-600 nm
1H NMR was taken in DMSO-d6 on a 500 MHZ Bruker NMR Spectrometer. […] Each had 5 protons as follows: NH, 2OH and 2 CH.

[3] = tested on: DHOD; test: In vitro conversion of [14C]dihydroorotate to orotate, corn root microsomal preparation; type: biochemical
Experimental: (§1) Etiolated corn roots and shoots or soybean suspension cells were used as tissue. Corn seedlings were germinated on vermiculite for 4 days in the dark at 26_C. and roots and shoots harvested separately. The soybean cells were grown in media consisting of Muashige and Skoog salts (Physiol. Plant (1962) 15:473-497) purchased from Gibco/BRL, vitamins (glycine 2 mg/L, thiamine 0.1 mg/L, nicotinic acid 0.5 mg/L, pyridoxine-HCl 0.5 mg/L), myo-inositol (100 mg/L), 2,4-D ([…]), and 30 g/L sucrose. Cell cultures are grown at 25° C. with gentle shaking. Cultures were transfered every 7 days to new growth media.
(§2) Approximately 5-10 g plant tissue were ground in liquid nitrogen and resuspended in 1:2 (w/v) homogenization buffer (30 mM KPO4^−; 25 mM […], 5 mM MgCl2, 5 mM ascorbic acid, pH 7.2). The homogenate was centrifuged at 10,000 g for 20 min, and the supernatant desalted using BioRad columns. The desalted supernatant was used for OPRTase/ODCase enzyme assays. For DHOD enzyme extraction, the supernatant was further centrifuged at 100,000 g for 45 min to obtain a microsomal pellet. The microsomal pellet was resuspended in 3-4 ml resuspension buffer (70 mM Tris-base, pH 7.4) containing 1% Triton X-100.
(§3) All enzyme assays were performed according to Rawls, J. M. (1978) Anal. Biochem. 86 (1): 107-117 and Cleaveland et al. (1995). Biochem. Pharm. 49(7):947-954. Enzyme assays were performed in a total volume of 200 ul with 1 uM [^14C]carbamoyl aspartate, [^14C]dihydroorotate or [^14C]orotate as substrates, and 1-5 mM probe compound or barbiturate as inhibitors. The [^14C]carbamoyl aspartate and [^14C]dihydroorotate assay was performed using a potassium phosphate buffer, pH 7.4 with 12 mM NAD^+, and 10 mM MgCl2. The [^14C]orotate enzyme assay was performed using Tris buffer, pH 8.8 with 12 mM PRPP and 10 mM MgCl2. Over time, 25 ul aliquots were taken from the reaction tube and boiled for 5 min to stop the reaction. Samples were spotted onto cellulose TLC plates and run using 0.1 M potassium phosphate buffer, 100% ammonium sulfate, and 1-propanol (10:6:1). Plates were developed using a TLC plate radioisotope detector. Orotate and UMP standards were run next to unknowns to identify the conversion of [^14C]orotate to [^14C]UMP in the enzyme assay.

[4] = tested on: DHO; test: In vitro conversion of [14C]dihydroorotate to carbamoyl aspartate, corn root microsomal preparation; type: biochemical
Experimental: as §1, §2, §3

[5] = tested on: grass species; test: Greenhouse herbicide efficacy, preemergence and post-emergence, whole plant injury; type: in vivo; conditions: preemergence and post-emergence applications
Text: (§4) The compounds were applied to flats containing individually potted plant species as post-emergent treatments, or seeded flats without emerged plants for preemergent treatments. The compounds were delivered in an 80% acetone solution plus 0.2% X-77. After two or three weeks of treatment, plants were rated compared to controls on a scale of 0 to 9 where 0 represents no injury and 9 represents 100% injury.

[6] = tested on: OPRTase/ODCase; test: In vitro enzymatic conversion of [14C]-orotate to UMP, cell free extract from corn root tissue; type: biochemical; conditions: for effect on OPRTase/ODCase activity (conversion of [14C]-orotate to UMP): cell free extract
Experimental: as §1, §2
as §3, with “The [^14C]orotate enzyme assay was performed using Tris buffer, pH 8.8 with 12 mM PRPP and 10 mM MgCl2.” left out

[7] = tested on: uracil biosynthesis pathway; test: [14C]-carbamoyl aspartate incorporation into uracil/uridine and orotate in soybean cell cultures; type: cell-based
Experimental: Soybean suspension cultures in the linear growth phase were used for [^14C]carbamoyl aspartate uptake and incorporation studies. Cells were treated with 0.01 uM [^14C]carbamoyl aspartate (approximately 200,000-400,000 dpm) with or without 100 uM compound “B”. Over time, aliquots were harvested by filtration, and rinsed thoroughly with potassium phosphate buffer, pH 3.11. Aliquots of uptake media and rinse were counted using a liquid scintillation spectrophotometer to determine percent uptake. Cells were immediately weighed, ground to a fine powder in liquid nitrogen, and suspended in 50% methanol. The homogenate was centrifuged at 10,000 g for 20 min. A portion of the pellet was weighed out and combusted to determine dpm's associated with this fraction. An aliquot of the supernatant was counted to determine the amount of label in the soluble fraction. Recovery of applied radiolabeled [^14C]carbamyol aspartate was 90-100%.
The soluble supernatant was concentrated overnight by lyophilization, and the extract was resuspended in 1 ml potassium phosphate buffer, pH 3.11. For HPLC analysis an anion exchange column was used with 85:15% potassium phosphate buffer, pH 3.11 and acetonitrile as running buffers. Fractions (1 ml) were collected for 20 min (flow rate […]), and counted using a liquid scintillation counter (LSC). UV absorbance was analyzed at 260 and 275 nm as the optimum absorbency wavelengths for UMP and orotate, respectively. Standards were used to identify the various peaks from the HPLC profile. Standard retention times under these conditions were: 3-4 min uracil/uridine, 7-9 min carbamoyl aspartate, 11-13 min UMP, and 17-19 min orotate.

[8] = tested on: wheat; test: Greenhouse herbicide efficacy, crop safety; type: in vivo; conditions: preemergence and post-emergence applications
Text: as §4

[9] = target: T1, ODCase (Rattus norvegicus, UniProt A0ACM8Q7Z8); conditions: rat brain tissue; cited from earlier work
T1 construct: host or cells: rat brain tissue
T1 sequence (A0ACM8Q7Z8 entry or part of it): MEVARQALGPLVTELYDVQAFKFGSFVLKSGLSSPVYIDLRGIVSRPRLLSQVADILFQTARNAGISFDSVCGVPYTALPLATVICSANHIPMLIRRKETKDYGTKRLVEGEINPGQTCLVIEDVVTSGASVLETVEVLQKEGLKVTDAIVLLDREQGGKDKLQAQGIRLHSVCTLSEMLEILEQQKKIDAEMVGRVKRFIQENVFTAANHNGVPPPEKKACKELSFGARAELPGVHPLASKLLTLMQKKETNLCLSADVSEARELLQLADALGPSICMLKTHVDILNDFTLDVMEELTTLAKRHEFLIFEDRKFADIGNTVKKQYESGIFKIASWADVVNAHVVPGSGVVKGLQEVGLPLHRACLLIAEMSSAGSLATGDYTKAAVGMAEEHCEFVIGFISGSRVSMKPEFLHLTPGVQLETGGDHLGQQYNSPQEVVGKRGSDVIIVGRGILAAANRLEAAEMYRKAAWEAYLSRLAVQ

Compound: CN(C)C=C1C=NNC1=O [E, 4-[(dimethylamino)methylene]-2,4-dihydro-3H-pyrazol-3-one]
- uracil biosynthesis inhibitory activity [1]: significant
- stability in aqueous solution [2]: stable in aqueous solution with no hydrolysis detected; also recorded: stable

Compound: O=C1NN=C/C1=C/Nc1ccc(F)cc1F [B, 4-[[(2,4-difluorophenyl)amino]methylene]-2,4-dihydro-3H-pyrazol-3-one]
- effect on DHOD activity (dihydroorotate converted to orotate) versus untreated control [3]: no difference
- effect on DHOD activity (dihydroorotate converted to orotate) versus untreated control ([3]; listed as probe compound): did not inhibit
- effect on DHO activity (dihydroorotate converted to carbamoyl aspartate) versus untreated control [4]: no difference
- effect on DHO activity (dihydroorotate converted to carbamoyl aspartate) versus untreated control ([4]; listed as probe compound): did not inhibit
- herbicidal effect, injury [5]: ≥ 50%
- radiolabeled orotate converted to UMP ([6]; 15 minutes after treatment, 100 μM PRPP, untreated control 55%): 55%
- effect on OPRTase/ODCase activity (conversion of [14C]-orotate to UMP) [6]: does not affect
- effect on OPRTase/ODCase activity (conversion of [14C]-orotate to UMP) ([6]; listed as probe compound): did not inhibit
- incorporation of radiolabeled carbamoyl aspartate into uracil/uridine ([7]; 50 μM): 25%
- incorporation of radiolabeled carbamoyl aspartate into uracil/uridine ([7]; 100 μM): 10%
- incorporation of [14C]-carbamoyl aspartate into orotate peak (16-19 min) ([7]; 100 uM, HPLC profile FIG. 6): 70%
- incorporation of radiolabeled carbamoyl aspartate into uracil/uridine ([7]; 100 μM, listed as probe compound): 19%
- incorporation of radiolabeled carbamoyl aspartate into orotic acid ([7]; 1 and 10 μM): 0-5%
- incorporation of radiolabeled carbamoyl aspartate into uracil/uridine ([7]; 1 and 10 μM): 80-90%
- incorporation of radiolabeled carbamoyl aspartate into orotic acid ([7]; 50 and 100 μM): 45-60%
- IC50 ([7]; Glycine max, soybean cell cultures, estimated, read-out: IC50 of inhibition of [14C]-carbamoyl aspartate incorporation): ~50 µM
- crop safety [8]: safety on wheat
- germination of Arabidopsis seeds ([1]; 1 μM): normal germination
- germination of Arabidopsis seeds ([1]; 16 μM): partial germination
- growth inhibition ([1]; 30 uM combined with 100 uM uracil): 0%
- germination of Arabidopsis seeds ([1]; 50 μM): not observed
- germination of Arabidopsis seeds ([1]; 100 μM): not observed
- reversal of injury by uracil, UMP and uridine ([1]; 100 uM antidote in growth media): reversed
- reversal of lethal effects by uridine ([1]; highest tested concentration of compound): does not reverse
- reversal of lethal effects by uridine ([1]; lower concentrations of compound (Rows 2-4)): reversed
- germination of Arabidopsis seeds ([1]; 500 μM): not observed
- inhibition at 30 µM ([1]; Arabidopsis thaliana, 30 uM, compound alone, read-out: growth inhibition): 50%
- IC50 ([1]; Arabidopsis thaliana, 96 well microtiter plate, read-out: estimated IC50 on Arabidopsis): 30 µM
- reversal of herbicidal effects by orotate or OMP ([1]; in vivo): did not reverse
- reversal of herbicidal effects by vitamins or purines ([1]; in vivo): Neither vitamins nor purines reversed
- reversal of lethal effects by adenine, cytosine, guanine, and thymidine ([1]; in vivo): did not reverse
- half-life [2]: < 24 h

Compound: O=c1cnn([C@@H]2O[C@H](CO)[C@@H](O)[C@H]2O)c(=O)[nH]1 [Compound 6-Azauridine, 6-Azauridine, reference compound]
- effect on OPRTase/ODCase activity (conversion of [14C]-orotate to UMP) [6]: not shown to inhibit

Compound: O=C1CC(=O)N([C@@H]2O[C@H](COP(=O)(O)O)[C@@H](O)[C@H]2O)C(=O)N1 [ribotide of barbiturate]
- Ki [9]: 0.0041 µM

Compound: O=C(O)C1C=NNC1=O (stereo not shown) [J, 4,5-dihydro-5-oxo-1H-pyrazole-4-carboxylic acid; or 2,3-dihydro-3-oxo-1H-pyrazole-4-carboxylic acid]
- effect on DHOD activity (dihydroorotate converted to orotate) versus untreated control [3]: no difference
- effect on DHO activity (dihydroorotate converted to carbamoyl aspartate) versus untreated control [4]: no difference

Compound: CN1N=CC(=CNc2ccc(F)cc2F)C1=O [G, 4-[[(2,4-difluorophenyl)amino]methylene]-2,4-dihydro-2-methyl-3H-pyrazol-3-one]
- uracil biosynthesis inhibitory activity [1]: only marginal
- stability in aqueous solution [2]: relatively stable
- half-life [2]: > 24 h

Compound: O=c1[nH][nH]cc1C=NO [D, 2,3-dihydro-3-oxo-1H-pyrazole-4-carboxaldehyde-4-oxime]
- effect on DHOD activity (dihydroorotate converted to orotate) versus untreated control [3]: no difference
- effect on DHO activity (dihydroorotate converted to carbamoyl aspartate) versus untreated control [4]: no difference
